{"source": "paper PMC6969166", "about": "“The molecular basis of pyrazinamide activity on Mycobacterium tuberculosis PanD” (Nature Communications, 2020)", "target": "Mtb PanD Arg54 to alanine (Mycobacterium tuberculosis, UniProt P9WIL3, R54A)", "type": "binding"}
{"smiles": "O=C(O)c1cnccn1", "note": "[POA, pyrazinoic acid]", "values": [{"measurement": "binding in ITC", "result": "no binding"}]}
